US4602035A, “Antidepressant (3-aryl-2,3-dihydrobenzofuran-3-yl)alkylamines” (Hoechst-Roussel Pharmaceuticals Inc., priority 1983, dated 1986)
Structures can show the parent of a compound that is named as a salt. Where two headings read alike, the source gives them in different places.

Experiments:
[1] = test system: Tetrabenazine induced ptosis in mice; assay: Prevention of tetrabenazine (TBZ) induced ptosis in mice (antidepressant activity); type: in vivo; details: Mus musculus; for inhibition in vivo at 20 mg/kg: 20 mg/kg i.p., read-out: TBZ Percent ptosis inhit. @ 20 mg/kg i.p.
Experimental: The method used is as follows.
Male mice weighing 20 to 30 grams are used in test groups of five subjects. All compounds are dissolved, or suspended with one drop of a non-ionic surfactant in distilled water and administered in volumes of 10 ml/kg of body weight. Tetrabenazine (TBZ) solution is made from methanesulfonate salt and the concentration is adjusted to enable the administration of 40 mg/kg of base by intraperitoneal injection (i.p.).
If the test compound is administered intraperitoneally, TBZ is injected 30 minutes after administration. If the test compound is administered orally (p.o.), TBZ is injected 60 minutes after the administration. A control group receives solvent and TBZ by the same route and at the same intervals as the drug groups.
The total score for each group of five will therefore be from 0 to 20 and these scores are used as indications of drug activity.
The vehicle-control group score is used as a determinate of the validity of each test.
A linear-regression analysis is used to estimate ED50 values.

[2] = test system: 2-phenyl-1,4-benzoquinone-induced writhing in mice; assay: 2-phenyl-1,4-benzoquinone-induced writhing (PQW) test in mice (analgesic activity); type: in vivo; details: for PQW Percent writhing inhib.: s.c.; for inhibition in vivo at 10 mg/kg / ED50: Mus musculus, sc; for inhibition in vivo at 10 mg/kg: 10 mg/kg s.c., read-out: PQW Percent writhing inhib. @ 10 mg/kg s.c.
Description: Compounds I of the present invention are also useful as analgesic agents due to their ability to alleviate pain in mammals. […] Exptl. Biol. Med., 95, 729 (1957)].

[3] = footnote a: determined by oral administration, mice, TBZ 40 mg/kg i.p., read-out: TBZ ED50 i.p.

CN(C)CCC1(c2ccccc2)COc2ccccc21.O=C(O)C(=O)O (stereo not shown) [2-(3-Phenyl-2,3-dihydrobenzofuran-3-yl)-N,N-dimethylethylamine oxalate]
ED50 [1, 3]: 3.03 mg/kg | PQW Percent writhing inhib. ([2]; footnote b: at 20 mg/kg): 49%

CN(CCC1(c2ccccc2)COc2ccccc21)C(=O)OCC(Cl)(Cl)Cl (stereo not shown) [2-(3-Phenyl-2,3-dihydrobenzofuran-3-yl)-N-(2,2,2-trichloroethoxycarbonyl)-N-methylethylamine]
inhibition in vivo at 20 mg/kg ([1]; ip, mice): 6%

CN(CCC#N)CCC1(c2ccccc2)COc2ccccc21 (stereo not shown) [2-(3-Phenyl-2,3-dihydrobenzofuran-3-yl)-N-(2-cyanoethyl)-N-methylethylamineoxalate]
inhibition in vivo at 20 mg/kg ([1]; ip, mice): 21% | PQW Percent writhing inhib. ([2]; footnote b: at 20 mg/kg): 33%

CN(C#N)CCC1(c2ccccc2)COc2ccccc21 (stereo not shown) [2-(3-Phenyl-2,3-dihydrobenzofuran-3-yl)-N-cyano-N-methylethylamine]
inhibition in vivo at 20 mg/kg ([1]; ip, mice): 20% | inhibition in vivo at 10 mg/kg [2]: 59%

CN(CCC1(c2ccccc2)COc2ccccc21)CC1CC1.O=C(O)/C=C/C(=O)O (stereo not shown) [2-(3-Phenyl-2,3-dihydrobenzofuran-3-yl)-N-cyclopropylmethyl-N-methylethylamine fumarate]
inhibition in vivo at 20 mg/kg ([1]; ip, mice): 22% | ED50 [2]: 6.27 mg/kg

CN(CCc1ccccc1)CCC1(c2ccccc2)COc2ccccc21.O=C(O)/C=C/C(=O)O (stereo not shown) [2-(3-Phenyl-2,3-dihydrobenzofuran-3-yl)-N-methyl-N-phenethylethylamine fumarate]
inhibition in vivo at 20 mg/kg ([1]; ip, mice): 17% | ED50 [2]: 20 mg/kg

CNCCC1(c2ccccc2)COc2ccccc21.Cl (stereo not shown) [2-(3-Phenyl-2,3-dihydrobenzofuran-3-yl)-N-methylethylamine hydrochloride]
ED50 [1, 3]: 4.99 mg/kg | inhibition in vivo at 10 mg/kg [2]: 53%

CN(C)CCCC1(c2ccccc2)COc2ccccc21.O=C(O)C(=O)O (stereo not shown) [3-(3-Phenyl-2,3-dihydrobenzofuran-3-yl)-N,N-dimethylpropylamine oxalate]
inhibition in vivo at 20 mg/kg ([1]; ip, mice): 37% | PQW Percent writhing inhib. ([2]; footnote c: at 25 mg/kg): 59%

CN(CCCC1(c2ccccc2)COc2ccccc21)C(=O)OCC(Cl)(Cl)Cl (stereo not shown) [3-(3-Phenyl-2,3-dihydrobenzofuran-3-yl)-N-(2,2,2-trichloroethoxycarbonyl)-N-methylpropylamine]
inhibition in vivo at 10 mg/kg [2]: 32%

CN(CCCC1(c2ccccc2)COc2ccccc21)CC1CC1 (stereo not shown) [3-(3-Phenyl-2,3-dihydrobenzofuran-3-yl)-N-cyclopropylmethyl-N-methylpropylamine oxalate]
inhibition in vivo at 20 mg/kg ([1]; ip, mice): 10% | inhibition in vivo at 10 mg/kg [2]: 48%

CN(CCCC1(c2ccccc2)COc2ccccc21)CCc1ccccc1 (stereo not shown) [3-(3-Phenyl-2,3-dihydrobenzofuran-3-yl)-N-methyl-N-phenethylpropylamine oxalate]
inhibition in vivo at 20 mg/kg ([1]; ip, mice): 0% | inhibition in vivo at 10 mg/kg [2]: 46%

CNCCCC1(c2ccccc2)COc2ccccc21.Cl (stereo not shown) [3-(3-Phenyl-2,3-dihydrobenzofuran-3-yl)-N-methylpropylamine hydrochloride]
ED50 ([1]; ip, mice, TBZ 40 mg/kg i.p., read-out: TBZ ED50 i.p.): 13.7 mg/kg | inhibition in vivo at 10 mg/kg [2]: 54%

CN(C)CCCC1(c2ccccc2)COc2ccc(Cl)cc21.O=C(O)C(=O)O (stereo not shown) [3-(3-Phenyl-5-chloro-2,3-dihydrobenzofuran-3-yl)-N,N-dimethylpropylamine oxalate]
inhibition in vivo at 20 mg/kg ([1]; ip, mice): 15% | PQW Percent writhing inhib. ([2]; footnote b: at 20 mg/kg): 38%

CN(C)CCC1(c2ccccc2F)COc2ccccc21 (stereo not shown) [3-[3-(2-Fluorophenyl)-2,3-dihydrobenzofuran-3-yl]-N,N--dimethylethylamine fumarate]
inhibition in vivo at 20 mg/kg ([1]; ip, mice): 60% | inhibition in vivo at 10 mg/kg [2]: 35%

Cc1ccccc1C1(CCN(C)C)COc2ccccc21 (stereo not shown) [3-[3-(2-Tolyl)-2,3-dihydrobenzofuran-3-yl]-N,N-dimethylethylamine fumarate]
inhibition in vivo at 20 mg/kg ([1]; ip, mice): 10% | inhibition in vivo at 10 mg/kg [2]: 34%

Cc1ccc(C2(CCN(C)C)COc3ccccc32)cc1 (stereo not shown) [3-[3-(4-Tolyl)-2,3-dihydrobenzofuran-3-yl]-N,N-dimethylethylamine fumarate]
inhibition in vivo at 20 mg/kg ([1]; ip, mice): 20% | inhibition in vivo at 10 mg/kg [2]: 61%

CN(C)CCCN1c2ccccc2CCc2ccccc21 [imipramine, reference compound]
ED50 ([1]; po, read-out: antidepressant ED50): 5.5 mg/kg
